Data reported in patent US10053454B2 (Bristol-Myers Squibb Company, priority 2013, dated 2018).
Each block holds one molecule with its values, some of them ahead of it.

Molecular target: BRD4 (Homo sapiens, UniProt O60885)
Experiment: Time Resolved Fluorescence Resonance Energy Transfer (TR-FRET) binding assay
Conditions: one of the FRET assays described (BRD4 construct not given)

SMILES: Cc1noc(C)c1-c1cc(C(N)=O)c2c(c1)c1ccc(C(C)(C)N3CCOCC3)cc1n2CC1CC1 [Example 52, 9-(cyclopropylmethyl)-3-(3,5-dimethyl-4-isoxazolyl)-7-(1-methyl-1-(4-morpholinyl)ethyl)-9H-carbazole-1-carboxamide]
IC50: < 50 nM

SMILES: Cc1noc(C)c1-c1cc(C(N)=O)c2c(c1)c1ccc(C(C)(C)O)cc1n2CC1CC1 [Example 53, 9-(cyclopropylmethyl)-3-(3,5-dimethyl-4-isoxazolyl)-7-(1-hydroxy-1-methylethyl)-9H-carbazole-1-carboxamide]
IC50: < 500 nM

SMILES: Cc1noc(C)c1-c1cc(C(N)=O)c2c(c1)c1ccc(C(C)(C)O)cc1n2S(=O)(=O)C1CC1 [Example 55, 9-(cyclopropylsulfonyl)-3-(3,5-dimethyl-4-isoxazolyl)-7-(1-hydroxy-1-methylethyl)-9H-carbazole-1-carboxamide]
IC50: < 50 nM

SMILES: Cc1nocc1-c1cc(C(N)=O)c2c(c1)c1ccc(C(=O)N3C[C@@H](C)O[C@@H](C)C3)cc1n2CC1CC1 [Example 56, 9-(cyclopropylmethyl)-7-((cis-2,6-dimethyl-4-morpholinyl)carbonyl)-3-(3-methyl-4-isoxazolyl)-9H-carbazole-1-carboxamide]
IC50: < 500 nM

SMILES: Cc1oncc1-c1cc(C(N)=O)c2c(c1)c1ccc(C(=O)N3C[C@@H](C)O[C@@H](C)C3)cc1n2CC1CC1 [Example 57, 9-(cyclopropylmethyl)-7-((cis-2,6-dimethyl-4-morpholinyl)carbonyl)-3-(5-methyl-4-isoxazolyl)-9H-carbazole-1-carboxamide]
IC50: < 500 nM

SMILES: Cc1noc(C)c1-c1cc(C#N)c2[nH]c3cc(C(=O)N4CCOCC4)ccc3c2c1 [Example 58, 3-(3,5-dimethyl-4-isoxazolyl)-7-(4-morpholinylcarbonyl)-9H-carbazole-1-carbonitrile]
IC50: < 5000 nM

SMILES: Cc1noc(C)c1-c1cc(C#N)c2c(c1)c1ccc(C(=O)N3CCOCC3)cc1n2CC1CC1 [Example 59, 9-(cyclopropylmethyl)-3-(3,5-dimethyl-4-isoxazolyl)-7-(4-morpholinylcarbonyl)-9H-carbazole-1-carbonitrile]
IC50: < 5000 nM

SMILES: CC(=O)n1c2cc(C(=O)N3C[C@@H](C)O[C@@H](C)C3)ccc2c2cc(-c3c(C)noc3C)cc(C(N)=O)c21 [Example 60, 9-acetyl-3-(3,5-dimethyl-4-isoxazolyl)-7-(cis-2,6-dimethylmorpholine-4-carbonyl)-9H-carbazole-1-carboxamide]
IC50: < 5000 nM

SMILES: CCNC(=O)n1c2cc(C(=O)N3C[C@@H](C)O[C@@H](C)C3)ccc2c2cc(-c3c(C)noc3C)cc(C(N)=O)c21 [Example 61, 3-(3,5-dimethyl-4-isoxazolyl)-7-(cis-2,6-dimethylmorpholine-4-carbonyl)-N9-ethyl-9H-carbazole-1,9-dicarboxamide]
IC50: < 5000 nM

SMILES: Cc1cnc(-c2cc(-c3c(C)noc3C)cc3c2[nH]c2cc(C(=O)N4CCOCC4)ccc23)o1 [Example 62, 3-(3,5-dimethyl-4-isoxazolyl)-1-(5-methyl-1,3-oxazol-2-yl)-7-(4-morpholinylcarbonyl)-9H-carbazole]
IC50: < 5000 nM

SMILES: Cc1noc(C)c1-c1cc(C(N)=S)c2[nH]c3cc(C(=S)N4CCOCC4)ccc3c2c1 [Example 63, 3-(3,5-dimethyl-4-isoxazolyl)-7-(4-morpholinylcarbonothioyl)-9H-carbazole-1-carbothioamide]
IC50: < 500 nM

SMILES: Cc1noc(C)c1-c1cc(C(N)=S)c2[nH]c3cc(C(=O)N4CCOCC4)ccc3c2c1 [Example 64, 3-(3,5-dimethyl-4-isoxazolyl)-7-(4-morpholinylcarbonyl)-9H-carbazole-1-carbothioamide]
IC50: < 5000 nM

SMILES: Cc1csc(-c2cc(-c3c(C)noc3C)cc3c2[nH]c2cc(C(=O)N4CCOCC4)ccc23)n1 [Example 65]
IC50: < 5000 nM

SMILES: CCn1c2cc(C(=O)N3CCOCC3)ccc2c2cc(-c3c(C)noc3C)cc(C(N)=S)c21 [Example 67, 3-(3,5-dimethyl-4-isoxazolyl)-9-ethyl-7-(4-morpholinylcarbonyl)-9H-carbazole-1-carbothioamide]
IC50: < 500 nM

SMILES: Cc1noc(C)c1-c1cc(C(N)=S)c2c(c1)c1ccc(C(=O)N3CCOCC3)cc1n2CC1CC1 [Example 68, 9-(cyclopropylmethyl)-3-(3,5-dimethyl-4-isoxazolyl)-7-(4-morpholinylcarbonyl)-9H-carbazole-1-carbothioamide]
IC50: < 5000 nM

SMILES: Cc1noc(C)c1-c1cc(-c2nc[nH]n2)c2[nH]c3cc(C(=O)N4CCOCC4)ccc3c2c1 [Example 69, 3-(3,5-dimethyl-4-isoxazolyl)-7-(4-morpholinylcarbonyl)-1-(1H-1,2,4-triazol-3-yl)-9H-carbazole]
IC50: < 500 nM

SMILES: Cc1noc(C)c1-c1cc(-c2nc[nH]n2)c2c(c1)c1ccc(C(=O)N3CCOCC3)cc1n2CC1CC1 [Example 70, 9-(cyclopropylmethyl)-3-(3,5-dimethyl-4-isoxazolyl)-7-(4-morpholinylcarbonyl)-1-(1H-1,2,4-triazol-3-yl)-9H-carbazole]
IC50: < 5000 nM

SMILES: Cc1noc(C)c1-c1cc(C(N)=O)c2c(c1)c1ccc(N3CCCS3(=O)=O)cc1n2CC1CC1 [Example 71, 9-(cyclopropylmethyl)-3-(3,5-dimethyl-4-isoxazolyl)-7-(1,1-dioxido-2-isothiazolidinyl)-9H-carbazole-1-carboxamide]
IC50: < 50 nM

SMILES: COc1ccc2c(c1)c1cc(-c3c(C)noc3C)cc(C(N)=O)c1n2S(C)(=O)=O [Example 72, 3-(3,5-dimethylisoxazol-4-yl)-6-methoxy-9-(methylsulfonyl)-9H-carbazole-1-carboxamide]
IC50: < 500 nM

SMILES: Cc1noc(C)c1-c1cc(C(N)=O)c2c(c1)c1c(C(=O)N3C[C@@H](C)O[C@@H](C)C3)cc(C(F)(F)F)cc1n2S(C)(=O)=O [Example 73, 3-(3,5-dimethyl-4-isoxazolyl)-5-((cis-2,6-dimethyl-4-morpholinyl)carbonyl)-9-(methylsulfonyl)-7-(trifluoromethyl)-9H-carbazole-1-carboxamide]
IC50: < 500 nM

SMILES: Cc1noc(C)c1-c1cc(C(N)=O)c2c(c1)c1c(C(=O)N3C[C@@H](C)O[C@@H](C)C3)cc(C(F)(F)F)cc1n2S(=O)(=O)C1CC1 [Example 74, 9-(cyclopropylsulfonyl)-3-(3,5-dimethyl-4-isoxazolyl)-5-((cis-2,6-dimethyl-4-morpholinyl)carbonyl)-7-(trifluoromethyl)-9H-carbazole-1-carboxamide]
IC50: < 500 nM

IC50: < 500 nM
SMILES: Cc1noc(C)c1-c1cc(C(N)=O)c2c(c1)c1c(C(=O)N3C[C@@H](C)O[C@@H](C)C3)cc(OC(F)(F)F)cc1n2S(=O)(=O)C1CC1 [Example 75, 9-(cyclopropylsulfonyl)-3-(3,5-dimethyl-4-isoxazolyl)-5-((cis-2,6-dimethyl-4-morpholinyl)carbonyl)-7-(trifluoromethoxy)-9H-carbazole-1-carboxamide]

SMILES: Cc1noc(C)c1-c1cc(C(N)=O)c2c(c1)c1c(C(=O)N3C[C@@H](C)O[C@@H](C)C3)cc(OC(F)(F)F)cc1n2S(C)(=O)=O [Example 76, 3-(3,5-dimethyl-4-isoxazolyl)-5-((cis-2,6-dimethyl-4-morpholinyl)carbonyl)-9-(methylsulfonyl)-7-(trifluoromethoxy)-9H-carbazole-1-carboxamide]
IC50: < 50 nM

SMILES: Cc1noc(C)c1-c1cc(C(N)=O)c2c(c1)c1cc(S(C)(=O)=O)ccc1n2S(=O)(=O)C1CC1 [Example 77, 9-(cyclopropylsulfonyl)-3-(3,5-dimethyl-4-isoxazolyl)-6-(methylsulfonyl)-9H-carbazole-1-carboxamide]
IC50: < 500 nM
